# Experimental data from PubChem BioAssay (NCI).
# Several values for one entry are separate records, joined by “and”; a condition that tells them apart may be missing. Identical values can stand only once.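 Step 1: Grow cells in 96-well plates. Step 2: Expose to compound for 48 hours at 5 concentrations. Step 3: Interpolate endpoints linearly; if unreached, use highest concentration. GI50 marks 50% less growth. TGI is the concentration that stops growth completely.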
# Experiments:
# Test in all cases: inhibition of tumour cell growth, NCI panel, 48 h
# EKVX NSCLC = test system: EKVX NSCLC
# SK-OV-3 ovarian = test system: SK-OV-3 ovarian
# HCC-2998 colon = test system: HCC-2998 colon
# HCT-15 colon = test system: HCT-15 colon
# SNB-75 CNS = test system: SNB-75 CNS
# MOLT-4 leukemia = test system: MOLT-4 leukemia
# COLO 205 colon = test system: COLO 205 colon
# SN12C renal = test system: SN12C renal
# SF-539 CNS = test system: SF-539 CNS
# SR leukemia = test system: SR leukemia
SMILES,TGI (EKVX NSCLC) [µM],TGI (SK-OV-3 ovarian) [µM],TGI (HCC-2998 colon) [µM],TGI (HCT-15 colon) [µM],TGI (SNB-75 CNS),TGI (MOLT-4 leukemia) [µM],TGI (COLO 205 colon),TGI (SN12C renal) [µM],TGI (SF-539 CNS),TGI (SR leukemia) [µM],GI50 (EKVX NSCLC) [µM],GI50 (HCT-15 colon) [µM],GI50 (SNB-75 CNS) [µM]
O=S(c1ccc(Cl)cc1)c1ccccc1C1=NCCN1 (centres undefined),> 100,> 100,> 100,> 100,> 100 µM,> 100,> 100 µM,> 100,–,–,–,–,–
COc1ccc(CCCN2c3ccccc3Sc3ccccc32)cc1,> 100,> 100,> 100,> 100,> 100 µM,> 100,> 100 µM,> 100,> 100 µM,–,–,–,–
CC(=O)c1ccc2c3c1O[C@H]1c4[nH]c5ccccc5c4C[C@@]4(O)[C@@H](C2)N(CC2CC2)CC[C@]314,45.3,35.9,–,25.3,–,47.6,30.8 µM,34.4,29.3 µM,–,–,–,–
CCOC1NC(/N=C/c2ccc(OC)cc2)=C(C#N)C1C#N (centres undefined),> 100,> 100,> 100,> 100,–,> 100,> 100 µM,> 100,> 100 µM,> 100,–,–,–
O=C(CSCC(=O)N/N=C\c1ccccc1F)N/N=C\c1ccccc1F,> 100,> 100,> 100,> 100,> 100 µM,> 100,> 100 µM,> 100,> 100 µM,–,–,–,–
Cc1c2oc3c(C)cc(F)c(C(=O)NC4C(=O)NC(C(C)C)C(=O)N5CCCC5C(=O)N(C)CC(=O)N(C)C(C(C)C)C(=O)OC4C)c3nc-2c(C(=O)NC2C(=O)NC(C(C)C)C(=O)N3CCCC3C(=O)N(C)CC(=O)N(C)C(C(C)C)C(=O)OC2C)c(N)c1=O (centres undefined),46.8,> 100,–,> 100,1.9 µM and 1.75 µM,0.00545,0.286 µM and 0.354 µM,> 100,1.41 µM and 0.727 µM,–,0.767,0.42,0.121
O=S1(=O)OCCCOS(=O)(=O)C1(Br)Br,> 100,> 100,–,> 100,> 100 µM,> 100,> 100 µM,> 100,–,> 100,–,–,–
N#Cc1c(N2CCCC2)nsc1Nc1ccc(F)cc1,> 100,> 100,> 100,> 100,–,> 100,> 100 µM,> 100,> 100 µM,> 100,–,–,–
CN(C)C=NCC(O)c1ccccc1 (centres undefined),> 100,> 100,–,> 100,> 100 µM,> 100,> 100 µM,> 100,> 100 µM,> 100,–,–,–
COc1cc2[nH]c(=O)c3cc(C)cc4c(Cl)nc(c1OC)c2c43,> 100,> 100,> 100,> 100,85.3 µM,> 100,> 100 µM,–,> 100 µM,–,–,–,–
Cc1ccc2c(=O)cc(Cc3csc4ccccc34)[nH]c2n1,> 100,> 100,–,55.8,79.6 µM,> 100,> 100 µM,> 100,–,–,–,–,–
CCN(CC)c1ccc2cc(C(N)=O)c(=Nc3ccc(F)cc3)oc2c1,> 100,> 100,> 100,> 100,47 µM,> 100,> 100 µM,> 100,–,> 100,–,–,–
c1ccc2c(c1)Sc1ccccc1N2C1CN2CCC1CC2 (centres undefined),27.7,35.4,29,34,25.4 µM,28.1,34.5 µM,29.1,28.3 µM,–,–,–,–
OCC1OC(c2ccccc2)CC1O (centres undefined),> 100,> 100,–,> 100,> 100 µM,> 100,> 100 µM,> 100,> 100 µM,> 100,–,–,–
O=c1[nH]nc(Cc2ccc(Cl)cc2)n1/N=C/c1c[nH]c2ccccc12,> 100,> 100,> 100,> 100,> 100 µM,> 100,–,> 100,> 100 µM,> 100,–,–,–
N#CCc1nc2cc(C(F)(F)F)ccc2s1,> 100,> 100,–,> 100,> 100 µM,> 100,> 100 µM,> 100,> 100 µM,–,–,–,–
S=C(N/N=C(\C(=N/NC(=S)N1CCCCC1)c1ccccn1)c1ccccn1)N1CCCCC1,> 100,> 100,> 100,> 100,> 100 µM,> 100,> 100 µM,–,> 100 µM,> 100,–,–,–
CC1(C)CN=CC(C)(OCc2ccccc2)C(=O)NC(C)(C)CN=CC(C)(OCc2ccccc2)C(=O)N1 (centres undefined),> 10,> 10,> 10,> 10,> 10 µM,> 10,–,> 10,> 10 µM,> 10,–,–,–
O=C1CCCCN1C(=O)c1ccc([N+](=O)[O-])cc1,> 100,–,> 100,> 100,> 100 µM,> 100,–,> 100,> 100 µM,> 100,–,–,–
O=c1[nH]c(=O)n(COCc2ccccc2)c2ccccc12,> 100,> 100,–,> 100,54.9 µM,> 100,> 100 µM,> 100,> 100 µM,> 100,–,–,–
O=C1C=C(O)c2c(O)ccc(O)c2C1=O,–,> 100,> 100,> 100,> 100 µM,> 100,> 100 µM,–,> 100 µM,–,–,–,–
CS(=O)(=O)OCC1CCCCCCCCCCC12SCCCS2 (centres undefined),> 100,> 100,> 100,> 100,–,> 100,> 100 µM,> 100,> 100 µM,> 100,–,–,–
